{
  "source": "paper PMC9739105",
  "about": "“Myotoxin-3 from the Pacific Rattlesnake Crotalus oreganus oreganus Venom Is a New Microtubule-Targeting Agent” (Molecules, 2022)",
  "key": {"[1]": {"system": "EB1", "conditions": "through phosphorylation of EB1 by GSK3; ref [34]; cited from earlier work"}, "[2]": {"system": "MCF-7 cells", "conditions": "ref [30]; cited from earlier work", "from_the_text": "(§1) We also observed a different response of MCF-7 and U87 cells when measuring cell viability upon myotoxin-3 treatment. […] The tubulin isotype composition impacts the structural properties of microtubules and tunes their dynamics. Tubulin is also subjected to a large diversity of post-translational modifications that a ..."}, "[3]": {"system": "HeLa cells", "conditions": "ref [30]; cited from earlier work", "from_the_text": "as §1"}, "[4]": {"system": "bacteria/fungi (anti-microbial activity)", "conditions": "without disulfide bonds; ref [18],[19]; cited from earlier work"}, "[5]": {"system": "cell", "conditions": "ref [24]; cited from earlier work", "from_the_text": "Moreover, myotoxin-3 altered the dynamics of microtubules in MCF-7 cells (Table 1). […] Disturbing the dynamic instability of microtubules is a hallmark o ..."}, "[6]": {"conditions": "reference not given; cited from earlier work", "from_the_text": "In summary, peak 1 contains two 45-residue peptides, i.e., myotoxin-3 (45-residue His^5-myotoxin-3) and one isoform with Leucine at position 5 (45-residue Leu^5-myotoxin-3). Peak 2 contains two shorter isoforms (43 residues) of myotoxin-3 with either Histidine (43-residue His^5-myotoxin-3) or Leucine at position 5 (43-residue Leu^5-myotoxin-3) (Figure 3). This structure resemblance explains the similarity in their chromatographic behavior."}, "[7]": {"biological_target": "lamb brain αβ-tubulin heterodimer (lamb (purified from lamb brain))", "test": "ITC; PEAQ-ITC, 20 °C, 55 µM tubulin in the cell, 2.2 mM myotoxin 3 in the syringe, 20 mM sodium phosphate pH 6.5, 1 mM TCEP, 0.1 mM GTP (non-assembly buffer), one-set-of-sites model"}},
  "note": "Where no end group is shown, it is not given here.",
  "data": [
    {"molecule": "C[C@]12CC[C@H](O)C[C@H]1CC[C@@H]1[C@@H]2CC[C@]2(C)[C@@H](c3ccc(=O)oc3)CC[C@]12O", "note": "[bufalin]", "values": [
      {"measurement": "Effect on microtubule dynamics", "setting": "[1]", "result": "affecting microtubule dynamics through the phosphorylation of EB1 by GSK3"}
    ]},
    {"molecule": "C[C@@H]1O[C@@H](O[C@@H]2C=C3CC[C@@H]4[C@H](CC[C@]5(C)[C@@H](c6ccc(=O)oc6)CC[C@]45O)[C@@]3(C)CC2)[C@H](O)[C@H](O)[C@H]1O", "note": "[proscillaridin A]", "values": [
      {"measurement": "Effect on microtubule dynamics", "setting": "[1]", "result": "affecting microtubule dynamics through the phosphorylation of EB1 by GSK3"}
    ]},
    {"molecule": "CC[C@]1(O)C[C@H]2CN(CCc3c([nH]c4ccccc34)[C@@](C(=O)OC)(c3cc4c(cc3OC)N(C=O)[C@H]3[C@@](O)(C(=O)OC)[C@H](OC(C)=O)[C@]5(CC)C=CCN6CC[C@]43[C@@H]65)C2)C1", "note": "[vincristine]", "values": [
      {"measurement": "Response of cells to vincristine", "setting": "[2]", "result": "reattached to the culture flask after a failed mitosis and remained viable"},
      {"measurement": "Response of cells to vincristine", "setting": "[3]", "result": "detached and died"}
    ]},
    {"molecule": "DTT-reduced crotamine: DTT-reduced crotamine (YKQCHKKGGHCFPKEKICLPPSSDFGKMDCRWRWKCCKKGSG; DTT-reduced; UniProt Q9PWF3 23-64, looked up)", "values": [
      {"measurement": "Antimicrobial activity", "setting": "[4]", "result": "kept their antimicrobial activity"}
    ]},
    {"molecule": "crotamine", "values": [
      {"measurement": "Cell penetration", "setting": "[5]", "result": "cell-penetrating properties"},
      {"measurement": "Anti-proliferative effect", "setting": "[6]", "result": "displaying an anti-proliferative effect"}
    ]},
    {"molecule": "non-structured crotamine: non-structured crotamine (without disulfide bonds) (YKQCHKKGGHCFPKEKICLPPSSDFGKMDCRWRWKCCKKGSG; without disulfide bonds; UniProt Q9PWF3 23-64, looked up)", "values": [
      {"measurement": "Antimicrobial activity", "setting": "[4]", "result": "keeps its anti-microbial activity"}
    ]},
    {"molecule": "non-structured recombinant crotamine: non-structured recombinant crotamine expressed in bacteria (YKQCHKKGGHCFPKEKICLPPSSDFGKMDCRWRWKCCKKGSG; also: recombinant, without disulfide bonds; UniProt Q9PWF3 23-64, looked up)", "values": [
      {"measurement": "Antimicrobial activity", "setting": "[4]", "result": "kept their antimicrobial activity"}
    ]},
    {"molecule": "YKRCHKKGGHCFPKTVICLPPSSDFGKMDCRWKWKCCKKGSVNNA (cysteines not oxidized (no disulfide bonds))", "note": "[synthetic non-oxidized myotoxin-3 (without disulfide bonds)]", "values": [
      {"measurement": "Kd", "setting": "[7]", "result": 5.3, "unit": "µM"},
      {"measurement": "stoichiometry N", "setting": "[7]; scale: myotoxin-3 molecules per tubulin heterodimer", "result": 2}
    ]}
  ]
}
